Measured values: the NIST ThermoML archive (doi:10.1016/j.jct.2016.04.006)
± gives the expanded uncertainty stated by the source.

Tests used:
[1] = mn = molality of the nth substance listed, in mol/kg; details: 100 kPa, Liquid, Capillary tube (Ostwald / Ubbelohde) method
[2] = 100 kPa, Liquid, Capillary tube (Ostwald / Ubbelohde) method

NCC(=O)O [2-aminoacetic acid] + O
viscosity [mPa·s], [1]
Details	m1 = 0.05	m1 = 0.15	m1 = 0.25	m1 = 0.35	m1 = 0.5
288.15 K	1.146 ± 0.021	1.16 ± 0.033	1.175 ± 0.022	1.19 ± 0.022	1.213 ± 0.022
298.15 K	0.896 ± 0.021	0.909 ± 0.021	0.921 ± 0.021	0.934 ± 0.021	0.953 ± 0.021
308.15 K	0.723 ± 0.021	0.735 ± 0.021	0.745 ± 0.021	0.755 ± 0.021	0.77 ± 0.021
318.15 K	0.603 ± 0.02	0.609 ± 0.021	0.618 ± 0.022	0.626 ± 0.021	0.639 ± 0.021

C[C@@H](O)[C@@H](O)[C@H](O)[C@H](O)C=O [6-deoxy-D-mannose] + O
viscosity [mPa·s], [1]
Details	m1 = 0.0395	m1 = 0.0753	m1 = 0.1036	m1 = 0.1173	m1 = 0.1403
288.15 K	1.164 ± 0.021	1.183 ± 0.022	1.2 ± 0.022	1.208 ± 0.022	1.22 ± 0.022
298.15 K	0.91 ± 0.021	0.922 ± 0.021	0.933 ± 0.021	0.945 ± 0.021	0.951 ± 0.021
308.15 K	0.732 ± 0.021	0.744 ± 0.021	0.753 ± 0.021	0.759 ± 0.021	0.766 ± 0.021
318.15 K	0.607 ± 0.02	0.616 ± 0.02	0.623 ± 0.02	0.626 ± 0.021	0.633 ± 0.021

OC[C@H]1O[C@@H](O[C@H]2[C@H](O)[C@@H](O)[C@H](O)O[C@@H]2CO)[C@H](O)[C@@H](O)[C@@H]1O [D-cellobiose] + O
viscosity [mPa·s], [1]
Details	m1 = 0.0529	m1 = 0.0639	m1 = 0.0903	m1 = 0.1292	m1 = 0.1479	m1 = 0.1603
288.15 K	1.193 ± 0.022	1.203 ± 0.022	1.231 ± 0.022	1.269 ± 0.022	1.286 ± 0.022	1.3 ± 0.023
298.15 K	0.928 ± 0.021	0.941 ± 0.021	0.961 ± 0.021	0.99 ± 0.022	1.001 ± 0.022	1.011 ± 0.024
308.15 K	0.748 ± 0.021	0.757 ± 0.021	0.771 ± 0.021	0.796 ± 0.021	0.807 ± 0.021	0.813 ± 0.022
318.15 K	0.621 ± 0.021	0.625 ± 0.021	0.64 ± 0.021	0.657 ± 0.021	0.664 ± 0.021	0.67 ± 0.021

O=C[C@H](O)[C@@H](O)[C@H](O)[C@H](O)CO [D-glucose] + O
viscosity [mPa·s], [1]
Details	m1 = 0.0523	m1 = 0.0745	m1 = 0.0885	m1 = 0.1034	m1 = 0.1197	m1 = 0.142
288.15 K	–	1.183 ± 0.022	1.185 ± 0.022	1.192 ± 0.022	1.205 ± 0.022	1.219 ± 0.022
298.15 K	0.911 ± 0.021	0.921 ± 0.021	0.926 ± 0.021	0.933 ± 0.021	0.938 ± 0.021	0.948 ± 0.022
308.15 K	0.735 ± 0.021	0.743 ± 0.021	0.747 ± 0.021	0.751 ± 0.021	0.756 ± 0.021	0.762 ± 0.021
318.15 K	0.609 ± 0.02	0.614 ± 0.02	0.618 ± 0.02	0.621 ± 0.02	0.625 ± 0.021	0.63 ± 0.021

OC[C@@H](O)[C@@H](O)[C@H](O)[C@H](O)CO [D-mannitol] + O
viscosity [mPa·s], [1]
Details	m1 = 0.0578	m1 = 0.0701	m1 = 0.0837	m1 = 0.12	m1 = 0.1409	m1 = 0.1659	m1 = 0.1943
288.15 K	1.181 ± 0.022	1.19 ± 0.022	1.199 ± 0.022	1.224 ± 0.022	1.236 ± 0.022	1.254 ± 0.022	1.278 ± 0.022
298.15 K	0.919 ± 0.021	0.928 ± 0.021	0.935 ± 0.021	0.949 ± 0.021	0.959 ± 0.021	0.974 ± 0.021	0.986 ± 0.022
308.15 K	0.741 ± 0.021	0.746 ± 0.021	0.753 ± 0.021	0.763 ± 0.021	0.771 ± 0.021	0.779 ± 0.021	0.791 ± 0.021
318.15 K	0.611 ± 0.02	0.617 ± 0.02	0.62 ± 0.02	0.629 ± 0.021	0.636 ± 0.021	0.644 ± 0.021	0.651 ± 0.021

O=C[C@@H](O)[C@@H](O)[C@H](O)[C@H](O)CO [D-mannose] + O
viscosity [mPa·s], [1]
Details	m1 = 0.0607	m1 = 0.0751	m1 = 0.0977	m1 = 0.1215	m1 = 0.134	m1 = 0.1525	m1 = 0.1822
288.15 K	–	1.183 ± 0.022	1.195 ± 0.022	1.207 ± 0.022	1.216 ± 0.022	1.224 ± 0.022	1.243 ± 0.022
298.15 K	–	0.921 ± 0.021	0.931 ± 0.021	0.94 ± 0.021	0.945 ± 0.021	0.954 ± 0.021	0.966 ± 0.022
308.15 K	0.739 ± 0.021	0.744 ± 0.021	0.749 ± 0.021	0.757 ± 0.021	0.76 ± 0.021	0.767 ± 0.021	0.776 ± 0.021
318.15 K	0.61 ± 0.02	0.614 ± 0.02	0.62 ± 0.02	0.625 ± 0.021	0.629 ± 0.021	0.635 ± 0.021	0.64 ± 0.021

O [water]
[2]
Details	viscosity [mPa·s]
288.15 K	1.138 ± 0.021
298.15 K	0.89 ± 0.021
308.15 K	0.719 ± 0.02
318.15 K	0.596 ± 0.02

CO[C@H]1O[C@H](CO)[C@@H](O)[C@H](O)[C@@H]1O [α-methyl mannopyranoside] + O
viscosity [mPa·s], [1]
Details	m1 = 0.0569	m1 = 0.0853	m1 = 0.1142	m1 = 0.1318	m1 = 0.1443
288.15 K	1.172 ± 0.021	1.188 ± 0.022	1.208 ± 0.022	1.217 ± 0.022	1.229 ± 0.022
298.15 K	0.913 ± 0.021	0.925 ± 0.021	0.942 ± 0.021	0.95 ± 0.021	0.96 ± 0.023
308.15 K	0.742 ± 0.021	0.75 ± 0.021	0.756 ± 0.021	0.765 ± 0.021	0.77 ± 0.021
318.15 K	0.61 ± 0.02	0.619 ± 0.02	0.625 ± 0.021	0.633 ± 0.021	0.636 ± 0.021
